Experimental findings from ChEMBL document CHEMBL1149765, “Anti-tumor 12-deoxyphorbol esters from Euphorbia cornigera” (Eur J Med Chem, 2008) are described below.

The term IC50 denotes the concentration needed to halve the response being measured. Higher therefore signals weaker potency. For orientation: inhibition means how much of the control response was suppressed.

≈ marks a conversion by molar mass, not a printed value.

Experiment [1] relates to KB. The experiment in a line: Cytotoxicity against human KB cells by MTT assay. In kind it is functional, cell-based. (In general: Tetrazolium assays rely on reduction of a dye to a coloured formazan, in cell work by metabolically active cells.)
For experiment [2], the system named is KB. The experiment in a line: Inhibition of DNA synthesis in human KB cells assessed as ratio of DNA in treated to control cells at 0.3 ug/ml. In kind it is functional.
The test system of experiment [3] is KB. The experiment in a line: Inhibition of DNA synthesis in human KB cells assessed as 5-bromo-2'-deoxyuridin incorporation at 0.3 ug/ml. In kind it is functional.
Experiment [4] concerns KB. The experiment in a line: Cytotoxicity against human KB cells assessed as viable cells at 0.3 ug/ml by trypan blue exclusion assay. In kind it is functional. The settings on record: read-out: Activity.
Experiment [5] concerns KB. The experiment in a line: Cytotoxicity against human KB cells assessed as apoptotic cells at 0.3 ug/ml by trypan blue exclusion assay. Type of experiment: functional.
Experiment [6] has as its system KB. The experiment in a line: Cytotoxicity against human KB cells assessed as necrotic cells at 0.3 ug/ml by trypan blue exclusion assay. In kind it is functional.
Experiment [7] deals with KB. The experiment in a line: Cytotoxicity against human KB cells assessed as necrotic cells at 2.5 ug/ml by trypan blue exclusion assay. In kind it is functional.
Experiment [8] concerns KB. The experiment in a line: Inhibition of DNA synthesis in human KB cells assessed as ratio of DNA in treated to control cells at 1.0 ug/ml. In kind it is functional.
The test system of experiment [9] is KB. The experiment in a line: Cytotoxicity against human KB cells assessed as viable cells at 2.5 ug/ml by trypan blue exclusion assay. In kind it is functional. The settings on record: read-out: Activity.
Experiment [10] relates to KB. The experiment in a line: Cytotoxicity against human KB cells assessed as viable cells at 5.0 ug/ml by trypan blue exclusion assay. Type of experiment: functional. The note with it: read-out: Activity.
For experiment [11], the system named is KB. The experiment in a line: Cytotoxicity against human KB cells assessed as viable cells at 1.0 ug/ml by trypan blue exclusion assay. In kind it is functional. The note with it: read-out: Activity.
Experiment [12] relates to KB. The experiment in a line: Cytotoxicity against human KB cells assessed as apoptotic cells at 5.0 ug/ml by trypan blue exclusion assay. In kind it is functional.
The subject of experiment [13] is KB. The experiment in a line: Cytotoxicity against human KB cells assessed as necrotic cells at 1.0 ug/ml by trypan blue exclusion assay. Type of experiment: functional.
In experiment [14] the test system is KB. The experiment in a line: Cytotoxicity against human KB cells assessed as apoptotic cells at 2.5 ug/ml by trypan blue exclusion assay. Type of experiment: functional.
Experiment [15] relates to KB. The experiment in a line: Inhibition of DNA synthesis in human KB cells assessed as 5-bromo-2'-deoxyuridin incorporation at 5.0 ug/ml. In kind it is functional.
Experiment [16] relates to KB. The experiment in a line: Inhibition of DNA synthesis in human KB cells assessed as ratio of DNA in treated to control cells at 2.5 ug/ml. In kind it is functional.
In experiment [17] the test system is KB. The experiment in a line: Inhibition of DNA synthesis in human KB cells assessed as 5-bromo-2'-deoxyuridin incorporation at 2.5 ug/ml. In kind it is functional.
For experiment [18], the system named is KB. The experiment in a line: Cytotoxicity against human KB cells assessed as apoptotic cells at 1.0 ug/ml by trypan blue exclusion assay. In kind it is functional.
For experiment [19], the system named is KB. The experiment in a line: Cytotoxicity against human KB cells assessed as necrotic cells at 5.0 ug/ml by trypan blue exclusion assay. In kind it is functional.

In the case of `COc1cccc2c1C(=O)c1c(O)c3c(c(O)c1C2=O)C[C@@](O)(C(=O)CO)C[C@@H]3O[C@H]1C[C@H](N)[C@H](O)[C@H](C)O1.Cl` [DOXORUBICIN HYDROCHLORIDE], the IC50 with KB [1] stood at 10 µg/mL.
Take `C/C=C(/C)C(=O)OCC1=C[C@H]2[C@@H]3C(C)(C)[C@]3(OC(=O)CCCCCCCCC)C[C@@H](C)[C@]2(O)[C@@H]2C=C(C)C(=O)[C@@]2(O)C1`: half-maximal inhibition in the experiment on KB [1] (IC50) required 6.4 µg/mL (≈ 10.9 µM).
In turn, `C/C=C(\C)C(=O)OCC1=C[C@H]2[C@@H]3C(C)(C)[C@]3(OC(=O)CCCCCCCCC)C[C@@H](C)[C@]2(O)[C@@H]2C=C(C)C(=O)[C@@]2(O)C1` returned an IC50 in the experiment with KB [1] of 7.6 µg/mL (≈ 13 µM). This IC50 and that of the molecule before are within 1.5-fold of each other.
On the same count and under the same terms, next, `COc1ccc(C(=O)OCC2=C[C@H]3[C@@H]4C(C)(C)[C@]4(OC(C)=O)C[C@@H](C)[C@]3(O)[C@@H]3C=C(C)C(=O)[C@@]3(O)C2)cc1`: 8.5 µg/mL (≈ 16.2 µM).
Turning to `COc1cccc2c1C(=O)c1c(O)c3c(c(O)c1C2=O)C[C@@](O)(C(=O)CO)C[C@@H]3O[C@H]1C[C@H](N)[C@H](O)[C@H](C)O1` [DOXORUBICIN], the Ratio with KB [2] was 0.57. Further, in the experiment on KB [3], the inhibition at 0.3 µg/mL was found to be 37.7%. In the experiment on KB [4], the viability at 0.3 µg/mL was 37.7%. The values for the Activity with KB [5] and in the experiment on KB [6] were 61.33% and 1%, respectively.
For the molecule `CCCCCCCCCC(=O)OCC1=C[C@H]2[C@@H]3C(C)(C)[C@]3(OC(=O)CCC)C[C@@H](C)[C@]2(O)[C@@H]2C=C(C)C(=O)[C@@]2(O)C1`, 7.8 µg/mL (≈ 13.6 µM) corresponded to half-maximal inhibition with KB [1] (IC50).
As for `CCCCCCCCCC(=O)OCC1=C[C@H]2[C@@H]3C(C)(C)[C@]3(OC(=O)CCCCCCCCC)C[C@@H](C)[C@]2(O)[C@@H]2C=C(C)C(=O)[C@@]2(O)C1`, the Activity worked out at 3% with KB [7]; 78.13% with KB [12]; 2% in the experiment on KB [13]; 60.29% with KB [14]; 39.24% in the experiment with KB [18]; 6% in the experiment on KB [19]. Also, the Ratio in the experiment on KB [8] is 0.57; with KB [16], 0.71. The viability at 2.5 µg/mL with KB [9] came to 36.7%. Further, the viability at 5 µg/mL with KB [10] was 15.9%. In addition, the viability at 1 µg/mL with KB [11] came out at 58.8%. Besides, the inhibition at 5 µg/mL in the experiment with KB [15] stood at 27.9%. In the experiment on KB [1], this molecule had an IC50 of 0.5 µg/mL (≈ 0.761 µM). For the same molecule, the inhibition at 2.5 µg/mL in the experiment on KB [17] amounted to 86%.
As for `CCCCCCCCCC(=O)OCC1=C[C@H]2[C@@H]3C(C)(C)[C@]3(OC(C)=O)C[C@@H](C)[C@]2(O)[C@@H]2C=C(C)C(=O)[C@@]2(O)C1`, half-maximal inhibition with KB [1] (IC50) required 8.5 µg/mL (≈ 15.6 µM).
In the case of `CCCCCCCCCC(=O)OCC1=C[C@H]2[C@@H]3C(C)(C)[C@]3(OC(=O)CCCCCCC)C[C@@H](C)[C@]2(O)[C@@H]2C=C(C)C(=O)[C@@]2(O)C1`, the Activity with KB [7] amounted to 1%; with KB [12], 70.89%; in the experiment on KB [13], 0%; in the experiment with KB [14] it was 34%; in the experiment on KB [18], 25.23%; with KB [19], 3%. The Ratio in the experiment on KB [8] is reported as 0.87; in the experiment on KB [16] it was 0.71. The viability at 2.5 µg/mL with KB [9] is 65%. In addition, the viability at 5 µg/mL in the experiment on KB [10] was found to be 26.1%. The viability at 1 µg/mL with KB [11] is 74.7%. Also, the inhibition at 5 µg/mL with KB [15] came to 23%. This molecule came in with an IC50 in the experiment with KB [1] of 0.8 µg/mL (≈ 1.27 µM). Moreover, the inhibition at 2.5 µg/mL in the experiment on KB [17] is 85%.
For the molecule `CCCCCCCCCCCC(=O)O[C@@]12C[C@@H](C)[C@@]3(O)[C@@H](C=C(COC(=O)CCCCCCCCC)C[C@]4(O)C(=O)C(C)=C[C@@H]34)[C@@H]1C2(C)C`, the Activity with KB [7] is 1%; in the experiment on KB [12], 70.13%; in the experiment with KB [13], 0%; in the experiment with KB [14] it was 52.23%; in the experiment on KB [18] it was 11.24%; in the experiment with KB [19], 2%. Moreover, the Ratio is on record as 0.47 in the experiment on KB [8] and 0.51 with KB [16]. Further, in the experiment with KB [9], the viability at 2.5 µg/mL stood at 46.7%. In addition, in the experiment with KB [10], the viability at 5 µg/mL worked out at 27.9%. Also, the viability at 1 µg/mL in the experiment with KB [11] was found to be 78.8%. Also, the inhibition at 5 µg/mL with KB [15] was 25.9%. Further, it took 1 µg/mL (≈ 1.46 µM) to reach half-maximal inhibition in the experiment on KB [1] (IC50). Moreover, in the experiment on KB [17], the inhibition at 2.5 µg/mL stood at 76%.
For the molecule `CC(=O)O[C@@]12C[C@@H](C)[C@@]3(O)[C@@H](C=C(COC(=O)c4ccccc4)C[C@]4(O)C(=O)C(C)=C[C@@H]34)[C@@H]1C2(C)C`, in the experiment on KB [1], the IC50 was found to be 8.2 µg/mL (≈ 16.6 µM).
In the experiment with KB [1], `CC(=O)O[C@@]12C[C@@H](C)[C@@]3(O)[C@@H](C=C(CO)C[C@]4(O)C(=O)C(C)=C[C@@H]34)[C@@H]1C2(C)C` [PROSTRATIN] yielded an IC50 of 1000 µg/mL (≈ 2560 µM). Compared with the last molecule, the IC50 is about 120-fold higher.
In the experiment on KB [1], `CCCCCCCCCC(=O)OCC1=C[C@H]2[C@@H]3C(C)(C)[C@]3(OC(=O)CCCCC)C[C@@H](C)[C@]2(O)[C@@H]2C=C(C)C(=O)[C@@]2(O)C1` showed an IC50 of 7.2 µg/mL (≈ 12 µM). Compared with the last molecule, the IC50 is about 140-fold lower.
